Patent US11020409B2, “Broad antiviral therapy with membrane modifying oxysterols” (priority 2012, dated 2021)

Tested on: VSV-GFP
Assay: microbe, parasite or virus in culture
Format: cell-based, vesicular stomatitis virus

C[C@H](CCCC(C)(C)O)[C@H]1CC[C@H]2[C@@H]3CC=C4C[C@@H](O)CC[C@]4(C)[C@H]3CC[C@]12C [25HC, 25-hydroxycholesterol]
VSV infection in HEK293T overexpressing active forms of SREBP1-A, SREBP1-B, and SREBP2: inhibited VSV infection
